ChEMBL document CHEMBL4507256 (2021)

Assays:
[1] = target: Ephrin type-A receptor 5 (Homo sapiens) (UniProt P54756); details: Compound concentration 1000.0 nM
[2] = target: Tyrosine-protein kinase Blk (Homo sapiens) (UniProt P51451); details: Compound concentration 1000.0 nM
[3] = target: Serine/threonine-protein kinase TNNI3K (Homo sapiens) (UniProt Q59H18); details: Compound concentration 1000.0 nM
[4] = target: Mast/stem cell growth factor receptor Kit (Homo sapiens) (UniProt P10721); details: Compound concentration 1000.0 nM
[5] = target: Cyclin-dependent kinase 4 (Homo sapiens) (UniProt P11802); details: Compound concentration 1000.0 nM
[6] = target: Ribosomal protein S6 kinase alpha-2 (Homo sapiens) (UniProt Q15349); details: Compound concentration 1000.0 nM
[7] = target: Ephrin type-B receptor 1 (Homo sapiens) (UniProt P54762); details: Compound concentration 1000.0 nM
[8] = target: Wee1-like protein kinase 2 (Homo sapiens) (UniProt P0C1S8); details: Compound concentration 1000.0 nM
[9] = target: Leukocyte tyrosine kinase receptor (Homo sapiens) (UniProt P29376); details: Compound concentration 1000.0 nM
[10] = target: Epidermal growth factor receptor (Homo sapiens) (UniProt P00533); details: Compound concentration 1000.0 nM
[11] = target: Serine/threonine-protein kinase WNK3 (Homo sapiens) (UniProt Q9BYP7); details: Compound concentration 1000.0 nM
[12] = target: Calcium/calmodulin-dependent protein kinase type II subunit beta (Homo sapiens) (UniProt Q13554); details: Compound concentration 1000.0 nM
[13] = target: Homeodomain-interacting protein kinase 4 (Homo sapiens) (UniProt Q8NE63); details: Compound concentration 1000.0 nM
[14] = target: Casein kinase I isoform delta (Homo sapiens) (UniProt P48730); details: Compound concentration 1000.0 nM
[15] = system: Tyrosine-protein kinase ABL1 (Homo sapiens), P00519 [E255K]; details: Compound concentration 1000.0 nM
[16] = system: Tyrosine-protein kinase ABL1 (Homo sapiens), P00519 [T315I]; details: Compound concentration 1000.0 nM
[17] = target: Tyrosine-protein kinase JAK1 (Homo sapiens) (UniProt P23458); details: Compound concentration 1000.0 nM
[18] = target: BDNF/NT-3 growth factors receptor (Homo sapiens) (UniProt Q16620); details: Compound concentration 1000.0 nM
[19] = target: Tyrosine-protein kinase ABL2 (Homo sapiens) (UniProt P42684); details: Compound concentration 1000.0 nM
[20] = target: Mitogen-activated protein kinase kinase kinase 11 (Homo sapiens) (UniProt Q16584); details: Compound concentration 1000.0 nM
[21] = target: 5-hydroxytryptamine receptor 1E (Homo sapiens) (UniProt P28566); details: Compound concentration 10.0 uM
[22] = target: Serine/threonine-protein kinase PAK 1 (Homo sapiens) (UniProt Q13153); details: Compound concentration 1000.0 nM
[23] = target: Serine/threonine-protein kinase PRP4 homolog (Homo sapiens) (UniProt Q13523); details: Compound concentration 1000.0 nM
[24] = target: Cyclin-dependent kinase 4 (Homo sapiens) (UniProt P11802); details: Compound concentration 1000.0 nM; remark: listed apart in the source
[25] = target: Mitogen-activated protein kinase 13 (Homo sapiens) (UniProt O15264); details: Compound concentration 1000.0 nM
[26] = system: Epidermal growth factor receptor (Homo sapiens), P00533 [G719S]; details: Compound concentration 1000.0 nM
[27] = target: LIM domain kinase 2 (Homo sapiens) (UniProt P53671); details: Compound concentration 1000.0 nM
[28] = system: Tyrosine-protein kinase ABL1 (Homo sapiens), P00519 [H396P]; details: Compound concentration 1000.0 nM
[29] = target: T1, Muscarinic acetylcholine receptor M2 (Homo sapiens) (UniProt P08172); details: Compound concentration 10.0 uM
T1 sequence (whole entry): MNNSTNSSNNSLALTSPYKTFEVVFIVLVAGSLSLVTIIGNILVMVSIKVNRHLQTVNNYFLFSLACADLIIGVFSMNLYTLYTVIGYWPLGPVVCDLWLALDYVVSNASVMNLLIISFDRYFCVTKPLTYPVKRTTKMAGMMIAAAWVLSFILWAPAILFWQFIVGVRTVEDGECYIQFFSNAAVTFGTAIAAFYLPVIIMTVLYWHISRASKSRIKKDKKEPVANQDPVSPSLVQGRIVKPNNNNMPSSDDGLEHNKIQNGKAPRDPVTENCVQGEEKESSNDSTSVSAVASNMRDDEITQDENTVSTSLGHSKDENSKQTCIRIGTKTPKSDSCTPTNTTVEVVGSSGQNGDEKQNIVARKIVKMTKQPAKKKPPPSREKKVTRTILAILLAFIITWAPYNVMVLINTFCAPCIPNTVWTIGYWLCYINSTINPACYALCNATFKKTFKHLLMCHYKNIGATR

[30] = target: Serine/threonine-protein kinase Sgk1 (Homo sapiens) (UniProt O00141); details: Compound concentration 1000.0 nM
[31] = target: Muscle, skeletal receptor tyrosine-protein kinase (Homo sapiens) (UniProt O15146); details: Compound concentration 1000.0 nM
[32] = target: Proto-oncogene tyrosine-protein kinase Src (Homo sapiens) (UniProt P12931); details: Compound concentration 1000.0 nM
[33] = target: Serine/threonine-protein kinase tousled-like 2 (Homo sapiens) (UniProt Q86UE8); details: Compound concentration 1000.0 nM
[34] = system: Epidermal growth factor receptor (Homo sapiens), P00533 [UNDEFINED MUTATION]; details: Compound concentration 1000.0 nM
[35] = target: D(3) dopamine receptor (Homo sapiens) (UniProt P35462); details: Compound concentration 10.0 uM
[36] = target: Tyrosine-protein kinase JAK2 (Homo sapiens) (UniProt O60674); details: Compound concentration 1000.0 nM
[37] = system: Phosphatidylinositol 4,5-bisphosphate 3-kinase catalytic subunit alpha isoform (Homo sapiens), P42336 [I800L]; details: Compound concentration 1000.0 nM
[38] = system: Phosphatidylinositol 4,5-bisphosphate 3-kinase catalytic subunit alpha isoform (Homo sapiens), P42336 [Q546K]; details: Compound concentration 1000.0 nM
[39] = target: Cyclin-dependent kinase 2 homolog (Plasmodium falciparum (isolate 3D7)) (UniProt P61075); details: Compound concentration 1000.0 nM
Cyclin-dependent kinase 2 homolog (Plasmodium falciparum (isolate 3D7)), sequence (P61075 whole entry): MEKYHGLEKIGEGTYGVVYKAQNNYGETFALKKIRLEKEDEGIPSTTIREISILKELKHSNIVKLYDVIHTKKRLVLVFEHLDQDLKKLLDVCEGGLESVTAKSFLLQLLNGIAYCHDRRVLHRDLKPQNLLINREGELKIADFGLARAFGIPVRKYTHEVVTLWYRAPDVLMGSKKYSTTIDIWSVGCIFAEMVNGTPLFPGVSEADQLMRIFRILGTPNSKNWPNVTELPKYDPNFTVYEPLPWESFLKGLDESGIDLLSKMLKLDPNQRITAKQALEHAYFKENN

Cyclin-dependent kinase 4 (Homo sapiens), sequence (P11802 whole entry): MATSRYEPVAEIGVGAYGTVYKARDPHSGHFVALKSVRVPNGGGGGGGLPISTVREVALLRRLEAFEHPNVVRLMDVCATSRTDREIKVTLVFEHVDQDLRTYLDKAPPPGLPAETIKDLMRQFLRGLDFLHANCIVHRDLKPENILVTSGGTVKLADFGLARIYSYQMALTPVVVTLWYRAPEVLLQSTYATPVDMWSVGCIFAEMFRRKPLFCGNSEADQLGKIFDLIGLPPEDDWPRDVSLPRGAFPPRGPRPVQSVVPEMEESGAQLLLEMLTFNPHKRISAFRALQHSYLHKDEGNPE
Ribosomal protein S6 kinase alpha-2 (Homo sapiens), sequence (Q15349 whole entry): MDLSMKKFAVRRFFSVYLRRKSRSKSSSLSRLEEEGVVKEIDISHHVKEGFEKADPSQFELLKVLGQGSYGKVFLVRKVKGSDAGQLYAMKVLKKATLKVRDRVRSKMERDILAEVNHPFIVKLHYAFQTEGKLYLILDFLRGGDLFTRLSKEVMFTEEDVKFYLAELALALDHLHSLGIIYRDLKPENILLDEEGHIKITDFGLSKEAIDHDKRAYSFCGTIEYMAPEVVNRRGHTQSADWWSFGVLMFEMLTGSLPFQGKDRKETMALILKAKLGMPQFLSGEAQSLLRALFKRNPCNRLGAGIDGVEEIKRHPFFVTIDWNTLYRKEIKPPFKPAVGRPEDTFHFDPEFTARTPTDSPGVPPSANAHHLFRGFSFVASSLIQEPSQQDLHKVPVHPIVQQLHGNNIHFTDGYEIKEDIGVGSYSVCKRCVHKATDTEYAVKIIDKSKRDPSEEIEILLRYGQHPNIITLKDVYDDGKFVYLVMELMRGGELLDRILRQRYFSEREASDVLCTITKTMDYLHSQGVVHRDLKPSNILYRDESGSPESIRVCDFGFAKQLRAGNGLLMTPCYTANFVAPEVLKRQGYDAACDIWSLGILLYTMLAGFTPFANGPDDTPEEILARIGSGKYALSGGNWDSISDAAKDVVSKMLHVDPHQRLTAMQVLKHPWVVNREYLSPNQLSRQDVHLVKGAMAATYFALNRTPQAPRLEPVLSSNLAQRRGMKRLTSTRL
Serine/threonine-protein kinase Sgk1 (Homo sapiens), sequence (O00141 whole entry): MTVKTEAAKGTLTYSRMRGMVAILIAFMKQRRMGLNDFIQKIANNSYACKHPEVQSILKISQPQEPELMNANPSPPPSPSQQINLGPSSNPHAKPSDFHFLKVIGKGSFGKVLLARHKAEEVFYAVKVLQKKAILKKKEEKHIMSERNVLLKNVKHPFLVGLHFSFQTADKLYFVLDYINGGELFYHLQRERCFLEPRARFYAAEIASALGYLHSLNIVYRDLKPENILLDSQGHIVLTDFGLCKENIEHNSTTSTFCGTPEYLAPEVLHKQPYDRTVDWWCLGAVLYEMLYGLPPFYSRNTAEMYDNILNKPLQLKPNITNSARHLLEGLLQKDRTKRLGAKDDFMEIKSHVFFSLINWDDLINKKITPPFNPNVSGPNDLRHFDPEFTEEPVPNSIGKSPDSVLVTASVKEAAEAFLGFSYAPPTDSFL
Tyrosine-protein kinase ABL2 (Homo sapiens), sequence (P42684 whole entry): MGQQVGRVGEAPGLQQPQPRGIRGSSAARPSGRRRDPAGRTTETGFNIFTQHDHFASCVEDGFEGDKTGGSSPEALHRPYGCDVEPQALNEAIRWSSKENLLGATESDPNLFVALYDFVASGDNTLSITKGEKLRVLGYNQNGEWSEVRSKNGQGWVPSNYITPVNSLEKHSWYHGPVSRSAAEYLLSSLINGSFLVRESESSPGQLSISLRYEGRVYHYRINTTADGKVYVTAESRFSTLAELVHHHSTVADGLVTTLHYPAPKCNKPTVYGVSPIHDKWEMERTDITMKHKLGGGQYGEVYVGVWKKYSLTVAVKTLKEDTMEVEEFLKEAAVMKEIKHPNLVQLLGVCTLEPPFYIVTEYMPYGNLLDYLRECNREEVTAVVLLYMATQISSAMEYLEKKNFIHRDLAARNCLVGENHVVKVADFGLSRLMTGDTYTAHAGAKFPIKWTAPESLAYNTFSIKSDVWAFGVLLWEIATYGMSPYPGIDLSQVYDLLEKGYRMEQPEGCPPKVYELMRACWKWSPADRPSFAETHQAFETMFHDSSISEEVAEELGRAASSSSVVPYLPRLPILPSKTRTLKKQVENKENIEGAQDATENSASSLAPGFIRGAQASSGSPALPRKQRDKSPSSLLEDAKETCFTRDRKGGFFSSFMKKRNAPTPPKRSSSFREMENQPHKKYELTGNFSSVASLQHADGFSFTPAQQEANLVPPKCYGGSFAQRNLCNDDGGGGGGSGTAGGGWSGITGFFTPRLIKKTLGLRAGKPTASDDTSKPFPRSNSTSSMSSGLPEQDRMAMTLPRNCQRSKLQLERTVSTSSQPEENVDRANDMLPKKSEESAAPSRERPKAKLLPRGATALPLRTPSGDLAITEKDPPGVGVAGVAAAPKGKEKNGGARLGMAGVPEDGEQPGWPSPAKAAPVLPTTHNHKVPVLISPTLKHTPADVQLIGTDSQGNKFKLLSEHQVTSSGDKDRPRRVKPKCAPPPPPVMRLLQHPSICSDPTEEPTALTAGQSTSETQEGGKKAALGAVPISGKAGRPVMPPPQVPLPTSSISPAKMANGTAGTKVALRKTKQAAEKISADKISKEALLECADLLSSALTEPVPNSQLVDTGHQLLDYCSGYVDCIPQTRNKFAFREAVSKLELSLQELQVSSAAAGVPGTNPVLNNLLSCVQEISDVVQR
Tyrosine-protein kinase JAK1 (Homo sapiens), sequence (P23458 whole entry): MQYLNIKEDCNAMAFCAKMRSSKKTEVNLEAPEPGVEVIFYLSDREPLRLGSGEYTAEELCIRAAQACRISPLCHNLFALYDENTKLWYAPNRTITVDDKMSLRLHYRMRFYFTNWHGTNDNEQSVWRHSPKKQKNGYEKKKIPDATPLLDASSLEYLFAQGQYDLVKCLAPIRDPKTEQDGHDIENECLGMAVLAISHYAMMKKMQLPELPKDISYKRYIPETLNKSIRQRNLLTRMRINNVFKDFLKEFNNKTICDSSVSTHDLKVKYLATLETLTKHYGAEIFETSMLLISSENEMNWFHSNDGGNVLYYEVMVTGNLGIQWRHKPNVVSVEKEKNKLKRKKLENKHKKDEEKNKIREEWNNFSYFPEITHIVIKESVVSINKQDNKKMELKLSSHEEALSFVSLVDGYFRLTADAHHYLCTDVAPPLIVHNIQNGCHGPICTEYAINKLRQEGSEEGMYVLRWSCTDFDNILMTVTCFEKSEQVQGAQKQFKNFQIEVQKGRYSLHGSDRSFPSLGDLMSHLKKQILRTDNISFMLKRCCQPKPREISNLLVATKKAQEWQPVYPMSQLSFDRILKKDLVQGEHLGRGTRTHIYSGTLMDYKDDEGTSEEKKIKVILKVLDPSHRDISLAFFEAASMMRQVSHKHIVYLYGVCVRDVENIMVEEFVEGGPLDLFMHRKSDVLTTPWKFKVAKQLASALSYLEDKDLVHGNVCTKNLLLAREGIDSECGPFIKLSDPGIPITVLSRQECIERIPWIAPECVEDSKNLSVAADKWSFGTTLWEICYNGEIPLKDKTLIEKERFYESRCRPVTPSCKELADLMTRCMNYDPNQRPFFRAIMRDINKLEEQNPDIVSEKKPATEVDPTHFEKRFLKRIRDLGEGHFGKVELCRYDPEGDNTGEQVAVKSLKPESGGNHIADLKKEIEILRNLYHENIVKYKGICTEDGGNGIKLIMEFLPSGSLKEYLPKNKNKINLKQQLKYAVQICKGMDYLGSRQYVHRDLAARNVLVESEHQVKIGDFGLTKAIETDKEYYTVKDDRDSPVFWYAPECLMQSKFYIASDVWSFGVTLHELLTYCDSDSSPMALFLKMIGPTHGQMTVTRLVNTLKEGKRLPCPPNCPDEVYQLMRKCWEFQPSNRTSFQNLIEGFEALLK
Ephrin type-B receptor 1 (Homo sapiens), sequence (P54762 whole entry): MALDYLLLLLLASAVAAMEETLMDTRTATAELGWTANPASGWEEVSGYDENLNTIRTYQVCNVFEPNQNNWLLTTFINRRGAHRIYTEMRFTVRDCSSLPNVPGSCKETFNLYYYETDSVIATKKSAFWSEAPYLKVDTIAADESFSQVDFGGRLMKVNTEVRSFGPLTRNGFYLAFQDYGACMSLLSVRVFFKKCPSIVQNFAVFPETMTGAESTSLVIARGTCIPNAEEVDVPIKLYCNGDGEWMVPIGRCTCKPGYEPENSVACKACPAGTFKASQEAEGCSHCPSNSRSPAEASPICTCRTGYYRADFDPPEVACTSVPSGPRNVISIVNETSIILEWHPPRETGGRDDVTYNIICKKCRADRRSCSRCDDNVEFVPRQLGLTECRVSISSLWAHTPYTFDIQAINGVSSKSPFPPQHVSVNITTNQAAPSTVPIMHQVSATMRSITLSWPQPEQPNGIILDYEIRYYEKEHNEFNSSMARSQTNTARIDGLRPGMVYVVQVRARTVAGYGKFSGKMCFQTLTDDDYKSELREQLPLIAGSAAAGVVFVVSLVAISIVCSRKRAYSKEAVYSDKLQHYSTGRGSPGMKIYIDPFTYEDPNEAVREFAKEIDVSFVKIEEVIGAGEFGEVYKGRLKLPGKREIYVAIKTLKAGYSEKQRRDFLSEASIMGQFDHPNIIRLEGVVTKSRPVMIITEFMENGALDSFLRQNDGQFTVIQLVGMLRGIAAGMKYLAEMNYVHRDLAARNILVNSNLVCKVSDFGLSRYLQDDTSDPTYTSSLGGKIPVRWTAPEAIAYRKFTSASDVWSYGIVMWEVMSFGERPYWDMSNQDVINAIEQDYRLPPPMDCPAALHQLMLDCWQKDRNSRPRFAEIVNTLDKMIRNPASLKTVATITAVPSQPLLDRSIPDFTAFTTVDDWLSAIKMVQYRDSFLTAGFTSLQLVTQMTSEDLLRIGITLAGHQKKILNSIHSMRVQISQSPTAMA

Compound	residual activity [1] [%]	residual activity [2] [%]	residual activity [3] [%]	residual activity [4] [%]	residual activity [5] [%]	residual activity [6] [%]	residual activity [7] [%]	residual activity [8] [%]	residual activity [9] [%]	residual activity [10] [%]	residual activity [11] [%]	residual activity [12] [%]	residual activity [13] [%]	residual activity [14] [%]	residual activity [15] [%]	residual activity [16] [%]	residual activity [17] [%]	residual activity [18] [%]	residual activity [19] [%]	residual activity [20] [%]	further results
CCC(=N\O)/C(C)=C/c1ccc(F)cc1 [A-079]	64	87	70	100	78	85	100	83	87	60	75	97	79	81	52	75	96	66	82	88	inhibition [21]: 6.66%; residual activity [22]: 88%; residual activity [23]: 100%; residual activity [24]: 100%; residual activity [25]: 92%; residual activity [26]: 67%; residual activity [27]: 80%; residual activity [28]: 100%; inhibition [29]: 9.31%; residual activity [30]: 89%; residual activity [31]: 90%; residual activity [32]: 91%; residual activity [33]: 100%; residual activity [34]: 65%; inhibition [35]: 14.5%; residual activity [36]: 71%; residual activity [37]: 100%; residual activity [38]: 91%; residual activity [39]: 84%
CCC(=N\O)/C(C)=C/c1ccc(F)c(C)c1 [A-226]	79	91	53	91	100	100	90	100	61	100	100	100	91	92	100	100	100	100	92	79	inhibition [21]: 4.47%; residual activity [22]: 70%; residual activity [23]: 85%; residual activity [24]: 100%; residual activity [25]: 100%; residual activity [26]: 79%; residual activity [27]: 90%; residual activity [28]: 100%; inhibition [29]: 14.3%; residual activity [30]: 100%; residual activity [31]: 100%; residual activity [32]: 98%; residual activity [33]: 100%; residual activity [34]: 73%; inhibition [35]: 8.6%; residual activity [36]: 100%; residual activity [37]: 100%; residual activity [38]: 46%; residual activity [39]: 100%
